Results on one molecule are retold here after patent US10383875B2, “Pharmaceutical formulations of xanthine or xanthine derivatives, and their use” (Imprimis Pharmaceuticals, Inc., priority 2013, dated 2019).

Data set [1] relates to symptoms of PD, such as erectile dysfunction. The data set is described as follows: Intracavernosal injection of a composition comprising pentoxifylline (general finding). The class given is in vivo. From the text: This disclosure relates to the finding that local administration of a xanthine derivative, e.g., pentoxifylline, has produced unexpected improvement in treating a fibrotic disease.

Data set [2] deals with Peyronie's Disease plaques. Particulars: oral administration; cited from earlier work.
For data set [3], the system named is Peyronie's plaque. The data set is described as follows: Injection of pentoxifylline directly into the Peyronie's plaque of patients (Examples 5 and 6). The format is in vivo, human. The following applies: Peyronie's disease.
Protocol: In Examples 5 and 6, patients suffering from Peyronie's disease were treated. A therapy cycle included injections of sterile pentoxifylline. More specifically, 6 separate injections were to be conducted over every two weeks. The dosage was 5 mg of pentoxifylline in a 1 ml volume. Single use vials were dispensed. The injections were made using a 21 gauge cannula directly into the Peyronie's plaque. A nerve block was done around the injection site to lessen the pain. Manual manipulation and traction techniques were employed to massage the area of the injection. Patients returned after two weeks for another injection and manual manipulation session.
Baseline measurements were collected before any treatment occurred to characterize the extent of the patient's disease. The degree of curvature was noted, as well as any pain/discomfort that the patient presently had and current sexual ability. Psychosocial effects related to the patient's disease were observed as well.
In Example 5, the patient suffering from Peyronie's disease was brought to the procedure room, prepared and draped in the usual sterile fashion.
A total of 1 mL of 1% lidocaine was used to perform a local block. Once the patient was anesthetized, the plaque was isolated between two fingers and 1 mL of 5 mg pentoxyfilline was injected into the plaque in a fan-like fashion. […]
Data set [4] has as its system erectile dysfunction. The data set is described as follows: Intracavernosal injection in a patient with erectile dysfunction (Example 4). The class given is in vivo, human. Particulars: person, along with phentolamine, alprostadil and papaverine. How it is done:
A new injection was reformulated to contain the 3 vasoactive drugs mentioned above along with the addition of pentoxifylline, and was administered to the patient.

With `CC(=O)CCCCn1c(=O)c2c(ncn2C)n(C)c1=O` [pentoxifylline, 1-(5-oxohexyl)-3,7-dimethylxanthine], the “improvement to symptoms of PD, such as erectile dysfunction” value in data set [1] was “remarkable improvement”. Also, the side effects entry in data set [1] is “fewer side effects”. Also, the “improvement of Peyronie's disease” value in data set [2] is reported as “moderate to minimal improvement”. Also, the “tolerability of the procedure” value in data set [3] (Example 5 patient, 1 mL of 5 mg injected into the plaque after 1% lidocaine local block) was “tolerated the procedure well”; in data set [3] (Example 6 patient, treated in the same fashion as Example 5 (5 mg in 1 ml into the plaque)) it was “tolerated the procedure well”. Besides, the “improvement of erectile dysfunction” value in data set [4] (pentoxifylline 6 mg dose) is given as “more remarkable”; in data set [4] (pentoxifylline dose of 4 mg per injection), “remarkable improvement”.
